In patent US9974760B2, “Compositions and methods for treating cancer” (Chemo-Enhanced LLC, priority 2011, dated 2018):
“Also recorded” adds a separate entry of the source.

How the values were obtained:
[1] = tested on: L3.6 pancreatic cancer cells; experiment: Cell viability / cell death (MTT) in L3.6 pancreatic cancer cells; assay type: cell-based, human; conditions: gemcitabine 1.5 μg/ml
[2] = tested on: MIA-PaCa2 cells; experiment: Cell death in MIA-PaCa2 pancreatic cancer cells; assay type: cell-based
Experimental: (§1) FIGS. 3A-3H show synergistic anti-tumor effects of C6-ceramide and gemcitabine in vivo and in vitro. SCID/Beige/Taconic nude male mice (22-25 g; 6-8 weeks old) were ear tagged and randomized into 4 different groups (Control, Ceramide, gemcitabine, Ceramide+gemcitabine) combining 5 mice each prior to inoculation subcutaneous (s.c.) with 2×10^6 L3.6 cells in a 0.1 ml volume into the internal surface of the right thigh. Treatment was started 4 days after L3.6 cell injection with thrice weekly (3×/wk) intraperitoneal (i.p.) injections of gemcitabine (two doses: 5.0 and 10.0 mg/ml) with or without C6-ceramide (10 mg/ml) for 2 weeks. Mouse survival (FIGS. 3A, 3B, and 3E) and tumor volume (in cm^3; FIGS. 3C and 3D) were recorded (FIG. 3E). […] Mitomycin C was always present in the media to prevent cell proliferation from occurring. The data represent the mean±SD of at least triplicate experiments. *P<0.05 versus group without C6-ceramide presents. The experiments were repeated at least three times and similar results were observed.
(§2) Cell viability was measured by the 3-[4m5-dimethylthylthiazol-2-y]-2.5 diphenyltetrazolium bromide (MTT) method, as described in Cao et al. (2009) Sci. Signal, 2:RA17. Briefly, the cells were collected and seeded in 96-well plate at a density of 2×10^5 cells/cm^2. Different seeding densities were optimized at the beginning of the experiments. […] The medium was subsequently aspirated from each well and 150 ul of DMSO (Sigma, St. Louis, Mo.) was added to dissolve formazan crystals and the absorbance of each well was obtained using a Dynatech MR5000 plate reader at a test wavelength of 490 nm with a reference wavelength of 630 nm.
(§3) The possible combination effect of C6-ceramide on gemcitabine-induced cytotoxicity (in vitro) and regression (in vivo) of the L3.6 pancreatic cancer cell was also tested according to the methods described in Examples 2 and 3. […] A synergistic anti-tumor effect of gemcitabine and C6-ceramide in multiple pancreatic cancer cells in vitro was also determined.

[3] = tested on: ERK; experiment: Western Blot of ERK activation in L3.6 cells; assay type: cell-based
Experimental: (§4) Pancreatic cancer cell lines L3.6 cells were left untreated or treated with gemcitabine (Gem, 1 μg/ml) or taxol (1.5 μg/ml) in the presence or absence of C6-ceramide (10 μg/ml) for 2, 4 and 6 hours, AKT/mTORC1 and ERK activation were detected by Western Blot using indicated antibodies (FIGS. 5A and 5C). p-AKT (S473) and p-ERK at 4 hour time intervals for each treatment quantified (FIGS. 5B and 5D). L3.6 cells were pretreated with various inhibitors including PI3K/AKT inhibitor LY 294002 (LY, 1 μM), mTORC1 inhibitor rapamycin (100 nM), MEK/ERK inhibitor U0126 (1 μg/ml) or gemcitabine (1 μg/ml) for 48 hours, cell death was detected 48 hours later (FIG. 5E).
(§5) As described in Cao et al. (2009) Sci. Signal, 2:RA17, aliquots of 30-40 μg of protein from each sample (treated as indicated in the legends) were separated by 10% SDS-polyacrylamide gel electrophoresis (SDS-PAGE) and transferred onto a polyvinylidene difluoride (PVDF) membrane (Millipore, Bedford, Mass.). After blocking with 10% instant nonfat dry milk for 1 hour, membranes were incubated with specific antibodies overnight at 4° C. followed by incubation with secondary antibodies (HRP-conjugated anti-rabbit or anti-mouse IgG at the appropriate dilutions) for 60 minutes to 1 hour at room temperature. Antibody binding was detected with the enhanced chemiluminescence (ECL) detection system (Amersham Biosciences, Piscataway, N.J.).

[4] = tested on: AKT/mTORC1; experiment: Western Blot of AKT/mTORC1 activation in L3.6 cells; assay type: cell-based; conditions: for PI3K/AKT/mTOR activation: Taxol alone
Experimental: as §4, §5

[5] = tested on: Panc-1 cells; experiment: Cell death in Panc-1 pancreatic cancer cells; assay type: cell-based
Experimental: as §1, §2, §3

[6] = tested on: AMPK/ACC; experiment: AMPK/ACC signaling in L3.6 cell line; assay type: cell-based; conditions: for AMPK activation: taxol alone
Source text: The molecular mechanism involved in C6-ceramide induced chemosensitization effects was examined by focusing on taxol.
To further confirm the requirement of AMPK activation in this synergistic effect, siRNA directed against AMPK can be used.

[7] = tested on: Gab1; experiment: Gab1 activation in wildtype and Gab1 knockout MEFs; assay type: cell-based; conditions: wildtype vs Gab1 knockout MEFs
Source text: One of the most studied scaffold proteins for AKT activation is Gab1. Physical association between p85 and Gab1 is crucial in mediating the PI3K/AKT signaling pathway induced by a variety of stimuli. […] It is believed that that Gab1 is a key adaptor for taxol and gemcitabine induced PI3K/AKT/mTOR activation and chemoresistance response. To confirm this rationale, wildtype and Gab1 knockout MEFs and Gab1 siRNA can be used to test taxol and gemcitabine induced PI3K/AKT/mTOR and cell death. Interaction between Gab1 and p85 after Taxol and Gemcitabine treatment can also be tested in L3.6 cells.

SMILES | cancer cell death [1] | sensitization to cetuximab ([2]; MIA PaCa-2, activating KRAS mutation) | cancer cell death ([2]; MIA cells, gemcitabine 1.5 μg/ml) | ERK activation / signaling ([3]; L3.6 cells, Western Blot) | effect on taxol induced pro-survival PI3K/AKT/mTOR pathway ([4]; C6-ceramide added to taxol) | sensitization to cetuximab ([5]; PANC-1, activating KRAS mutation) | cancer cell death ([5]; Panc-1, gemcitabine 1.5 μg/ml) | effect on Taxol induced AMPK/ACC signaling (phosphorylation) ([6]; C6-ceramide added to taxol, L3.6 cell line) | effect on C6-ceramide inhibition of ERK activation ([3]; added to C6-ceramide) | PI3K/AKT/mTOR activation [4] | PI3K/AKT/mTOR activation ([4]; listed as Taxol) | effect on C6-ceramide induced AKT de-phosphorylation or inhibition ([4]; added to C6-ceramide) | Gab1 activation [7] | AMPK activation ([6]; listed as Taxol) | AMPK activation ([6]; listed as taxol)
CCCCCCCCCCCCC/C=C/[C@@H](O)[C@H](CO)NC(=O)CCCCC [C6-ceramide, N-hexanoyl-D-sphingosine] | moderate effect | markedly sensitized | moderate effect | induced moderate survival of AKT/mTORC1 and ERK activation; also recorded: inhibited | dramatically reduces | markedly sensitized | moderate effect | enhancing; also recorded: dramatically enhances |  |  |  |  |  |  | 
CC(=O)O[C@H]1C(=O)[C@@]2(C)[C@H]([C@H](OC(=O)c3ccccc3)[C@]3(O)C[C@H](OC(=O)[C@H](O)[C@@H](NC(=O)c4ccccc4)c4ccccc4)C(C)=C1C3(C)C)[C@]1(OC(C)=O)CO[C@@H]1C[C@@H]2O [paclitaxel] |  |  |  |  |  |  |  |  | enhanced | no effect | strongly induce | dramatically enhanced | induces Gab1 activation in wildtype but not Gab1 knockout MEFs | strongly induce | moderate AMPK activation
